This is an account of results in ChEMBL document CHEMBL1201862, “PubChem BioAssay data set” (2004).

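These data come from cells grown in 96-well plates and exposed to compound for 48 hours at five concentrations. GI50 = concentration required for 50% inhibition of growth.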 Active and inactive are the calls of the source. Rule as the data show it: active = GI50 up to about 1.1 µM and inactive = higher.

Holding throughout (assay): DTP human tumour cell line panel, 48 h
Experiment [1] has as its system 786-0.
For experiment [2], the system named is A549.
Experiment [3] has as its system ACHN.
For experiment [4], the system named is BT-549.
In experiment [5] the test system is DU-145.
Experiment [6] relates to HCT-116.
Experiment [7] has as its system HCT-15.
Experiment [8] concerns HT-29.
The subject of experiment [9] is Hs-578T.
Experiment [10] deals with K562.
Experiment [11] concerns LOX IMVI.
Experiment [12] has as its system MCF7.
The test system of experiment [13] is NCI-H522.
The test system of experiment [14] is NCI/ADR-RES.
For experiment [15], the system named is RPMI-8226.
In experiment [16] the test system is SK-MEL-28.
The subject of experiment [17] is SNB-19.
For experiment [18], the system named is SR.
The subject of experiment [19] is SW-620.
The subject of experiment [20] is U-251.

Regarding `Cc1ccccc1NC(=O)O/N=C(\Cl)C(C)C`, the GI50 (in general, the concentration giving 50% growth inhibition) is 1.81 µM (inactive) in experiment [1]; 19.1 µM (inactive) in [2]; 1.69 µM (inactive) in experiment [3]; 5.32 µM (inactive) in experiment [4]; 17.2 µM (inactive) in [5]; 2.18 µM (inactive) in experiment [6]. For the same compound, the GI50 in experiment [7] is 2.09 µM; in [8], 5.56 µM (inactive); in [9], 22.3 µM (inactive); in experiment [10], 1.46 µM (inactive); in [11], 1.55 µM (inactive); in [12], 7.98 µM (inactive). Also, the GI50 in experiment [13] was 1.68 µM (inactive); in experiment [14], 16.5 µM (inactive); in experiment [15], 1.86 µM (inactive); in experiment [16], 2.4 µM (inactive); in experiment [17], 20.8 µM (inactive); in experiment [18], 2.85 µM (inactive). Further, the GI50 in [19] was 1.82 µM (inactive); in experiment [20], 19.4 µM (inactive).
In the case of `CCCCCCCCCCCCCCC(O)C[N+](C)(CCO)CCO` (stereo not given), the GI50 is 1.98 µM (inactive) in experiment [1]; 10.2 µM (inactive) in [2]; 6.01 µM (inactive) in experiment [3]; 3.05 µM (inactive) in experiment [4]; 11 µM (inactive) in [5]; 5.79 µM (inactive) in [6]. Also, the GI50 was 5.96 µM in experiment [7]; 2.12 µM (inactive) in experiment [8]; 2.17 µM (inactive) in [9]; 4.24 µM (inactive) in [10]; 1.48 µM (inactive) in [11]; 12.6 µM (inactive) in [12]. The GI50 in [13] is 1.64 µM (inactive); in experiment [14] it was 20.3 µM (inactive); in [15], 1.92 µM (inactive); in [16] it was 9.79 µM (inactive); in [17], 1.49 µM (inactive); in [18] it was 1.92 µM (inactive). The GI50 in experiment [19] is 6.22 µM (inactive); in experiment [20] it was 1.53 µM (inactive).
As for `NCCCN(CCCN)CCc1cn(C(=O)c2ccccc2)cn1`, the GI50 in experiment [1] was 8.59 µM (inactive); in [2], 9.46 µM (inactive); in experiment [3], 6.5 µM (inactive); in [4] it was 12.5 µM (inactive); in [5], 4.32 µM (inactive); in [6] it was 4.86 µM (inactive). The GI50 was 7.78 µM in experiment [7]; 11.9 µM (inactive) in [8]; 11.4 µM (inactive) in experiment [9]; 3.61 µM (inactive) in [10]; 11.6 µM (inactive) in [11]; 2.62 µM (inactive) in [12]. The GI50 in [13] is 10 µM (inactive); in experiment [14] it was 14.4 µM (inactive); in [15] it was 2.38 µM (inactive); in experiment [16] it was 13.8 µM (inactive); in experiment [17], 15.1 µM (inactive); in experiment [18] it was 2.24 µM (inactive). For the same compound, the GI50 in experiment [19] was 10.2 µM (inactive); in [20], 14.4 µM (inactive).
For `C[n+]1c(-c2ccc(NC(=O)c3ccc(C(=O)Nc4ccc(-c5cn6ccccc6[n+]5C)cc4)cc3)cc2)cn2ccccc21`, the GI50 in [1] is 29 µM (inactive); in [2], > 100 µM (inactive); in experiment [3], > 100 µM (inactive); in experiment [4], > 100 µM (inactive); in [5], > 100 µM (inactive); in [6], > 100 µM (inactive). Further, the GI50 is more than 100 µM in [7]; > 100 µM (inactive) in experiment [8]; > 100 µM (inactive) in experiment [9]; > 100 µM (inactive) in experiment [10]; > 100 µM (inactive) in [11]; > 75 µM (inactive) in experiment [12]. Besides, the GI50 in [13] was > 100 µM (inactive); in experiment [14], > 100 µM (inactive); in experiment [15], 14.3 µM (inactive); in [16] it was > 100 µM (inactive); in experiment [17], > 100 µM (inactive); in [18], 18.5 µM (inactive). The results for the GI50 in [19] and in experiment [20] were > 100 µM (inactive) and > 73.3 µM (inactive), respectively.
Take `COc1ccc2c(=O)c3ccoc3n(CC=C(C)C)c2c1` [ACROPHYLLINE]: the GI50 was > 91.6 µM (inactive) in [1]; 7.14 µM (inactive) in experiment [2]; 8.49 µM (inactive) in [3]; 35.4 µM (inactive) in experiment [4]; 34 µM (inactive) in experiment [5]; 52.7 µM (inactive) in experiment [6]. Further, the GI50 in experiment [7] is 35.6 µM; in [8], 47.2 µM (inactive); in experiment [9] it was 31.3 µM (inactive); in experiment [10], 48.9 µM (inactive); in experiment [11] it was 42.3 µM (inactive); in experiment [12], 33.7 µM (inactive). For the same compound, the GI50 in experiment [13] is 2.65 µM (inactive); in [14], 18.8 µM (inactive); in experiment [15], 22.4 µM (inactive); in experiment [16], 60.5 µM (inactive); in experiment [17], > 76.6 µM (inactive); in experiment [18], 31 µM (inactive). The GI50 in [19] was 97.3 µM (inactive); in experiment [20], > 100 µM (inactive).
Take `NNC(=O)C(O)C(O)C(O)CO` (stereo not given): the GI50 in experiment [1], in experiment [2], in [3], in experiment [4], in experiment [5] and in experiment [6] was > 100 µM (inactive) each time. Further, the GI50 in [7] was more than 100 µM; in experiment [8], > 100 µM (inactive); in experiment [9] it was > 100 µM (inactive); in experiment [10], > 100 µM (inactive); in experiment [11], 88.9 µM (inactive); in [12], > 100 µM (inactive). The GI50 in experiment [13] is > 100 µM (inactive); in experiment [14] it was > 100 µM (inactive); in experiment [15], > 100 µM (inactive); in [16], > 100 µM (inactive); in experiment [17], > 100 µM (inactive); in experiment [18], 67.8 µM (inactive). The GI50 in experiment [19] and in experiment [20] was > 100 µM (inactive) throughout.
In the case of `O=[N+]([O-])c1cccc(/C=N/NC2=CS(=O)(=O)C=C2)c1`, the GI50 in [1] is > 100 µM (inactive); in experiment [2], > 100 µM (inactive); in [3], > 100 µM (inactive); in [4], 78.7 µM (inactive); in experiment [5], > 100 µM (inactive); in experiment [6], > 100 µM (inactive). Also, the GI50 is more than 100 µM in experiment [7]; > 100 µM (inactive) in [8]; > 100 µM (inactive) in [9]; > 100 µM (inactive) in experiment [10]; > 100 µM (inactive) in experiment [11]; > 100 µM (inactive) in [12]. Also, the GI50 in [13], in experiment [14], in [15], in [16], in experiment [17] and in experiment [18] was > 100 µM (inactive) throughout. Moreover, the GI50 in experiment [19] and in [20] was > 100 µM (inactive) each time.
Turning to `C[As+](C)(c1ccc(Br)c([N+](=O)[O-])c1)c1ccc(Br)c([N+](=O)[O-])c1`, the GI50 in experiment [1], in experiment [2], in experiment [3], in experiment [4], in experiment [5] and in experiment [6] was > 100 µM (inactive) each time. For the same compound, the GI50 is more than 100 µM in [7]; > 100 µM (inactive) in experiment [8]; > 100 µM (inactive) in experiment [9]; > 100 µM (inactive) in [10]; > 100 µM (inactive) in [11]; > 100 µM (inactive) in experiment [12]. For the same compound, the GI50 in experiment [13] was 87.7 µM (inactive); in experiment [14], > 100 µM (inactive); in [15] it was 44.7 µM (inactive); in experiment [16] it was 27.9 µM (inactive); in experiment [17], > 100 µM (inactive); in [18] it was > 100 µM (inactive). Further, the GI50 in experiment [19] and in experiment [20] was > 100 µM (inactive) each time.
As for `CCOC(=O)c1c(N2CCOCC2)[nH]c(=O)c(C(c2ccc(Cl)c([N+](=O)[O-])c2)c2c(O)c(C(=O)OCC)c(N3CCOCC3)[nH]c2=O)c1O`, the GI50 in [1] was 28.1 µM (inactive); in experiment [2], > 100 µM (inactive); in experiment [3] it was 55.1 µM (inactive); in [4], 24.4 µM (inactive); in experiment [5], 22.9 µM (inactive); in experiment [6], 20.3 µM (inactive). Also, the GI50 is more than 100 µM in [7]; 20.9 µM (inactive) in experiment [8]; > 100 µM (inactive) in experiment [9]; 30.3 µM (inactive) in experiment [10]; 19.5 µM (inactive) in experiment [11]; 22 µM (inactive) in [12]. The GI50 in experiment [13] was 28 µM (inactive); in experiment [14], 39 µM (inactive); in [15], 26.7 µM (inactive); in [16] it was 42.6 µM (inactive); in experiment [17], 26.5 µM (inactive); in experiment [18], 36.1 µM (inactive). The GI50 in [19] is 23.4 µM (inactive); in [20], 19.6 µM (inactive).
